From US20100234226A1, “HERBICIDE COMBINATION COMPRISING DIMETHOXYTRIAZINYL-SUBSTITUTED DIFLUOROMETHANESULFONYLANILIDES” (BAYER CROPSCIENCE AG, priority 2008, published 2010) come the findings set out here.

Read-outs that look alike come from different tables or passages of the source.

Common to all, as to type: in vivo
Test [1] relates to Lolium multiflorum (LOLMU). As to the kind of experiment: Post-emergence action against weeds, greenhouse pot test, Lolium multiflorum. Conditions: read-out: % activity found; for inhibition at 200 g/ha: 200 g of ai/ha; for inhibition at 600 g/ha: 600 g of ai/ha. As for the experimental part:
(§1) Seeds or rhizome pieces of mono- and dicotyledonous harmful and useful plants were placed in peat pots (diameter 4 cm) filled with sandy loam and then covered with soil. The pots were kept in a greenhouse under optimum conditions. In addition, harmful plants encountered in paddy rice cultivation were cultivated in pots with a water level 2 cm above the soil surface.
(§2) About three weeks after the start of the cultivation, the test plants were treated at the 2- to 3-leaf stage. The herbicides, formulated as powder or liquid concentrates, were, either alone or in the combinations according to the invention, sprayed in various dosages on to the green parts of the plants using an application rate of 600 l of water/ha (converted). For further cultivation of the plants, the pots were then again kept under optimum conditions in a greenhouse.
(§3) The visual scoring of the herbicidal effects was carried out in intervals up to 21 days after the treatment. Scoring was carried out in percent in comparison to the untreated control plants. 0%=no herbicidal activity, 100%=complete herbicidal activity=complete kill.
(§4) The percentages from the treatments with the herbicides alone (=individual application) and with the combinations according to the invention (=mixtures) were employed to calculate interactions using the method of Colby. When the observed efficacies of the mixtures exceed the formal sum of the values of the tests with individual applications, they also exceed the expected value according to Colby, which is calculated using the formula below (cf. S. R. Colby; in Weeds 15 (1967) pp. 20 to 22):
(§5) Here: • A, B=activity of components A and B in percent at a dosage of a and b g of ai/ha (=gramm of active substance per hectare), respectively. • E=expected value in % at a dosage of a+b g of ai/ha.
(§6) The combinations according to the invention of herbicides from group (A) with herbicides from group (B) were tested on a broad spectrum of important harmful plants (weed grasses, broad-leaved weeds/Cyperaceae) and useful plants: Triticum aestivum (TRZAS), Stellaria media (STEME), Lolium multiflorum (LOLMU), Veronica persica (VERPE), Alopecurus myosuroides (ALOMY), Matricaria inodora (MATIN), Brassica napus (BRSNW), Viola tricolor (VIOTR), Avena fatua (AVEFA), Amaranthus retroflexus (AMARE), Zea mays (ZEAMX), Pharbitis purpurea (PHBPU), Setaria viridis (SETVI), Fallopia (ex Polygonum) convolvulus (POLCO), Echinochloa crus-gaffi (ECHCG), Abuthilon theophrasti (ABUTH), Cyperus esculentus (CYPES), Oryza sativa (ORYSA).
(§7) Of particular interest are the results shown in the tables (Tab.) below, where the following key is used: • (1) EPPO code (former Bayer code) for the treated plant (see above) • (2) Time of scoring: DAT (days after treatment) • (3) Component A tested (identifying number) • (4) Component B tested (identifying number) • (5) Dosage component A [g of ai/ha] • (6) Dosage component B [g of ai/ha] • (7) % activity found • (8) E value (calculated according to Colby; see above) • (9) Comments: “SYNERGY”=synergistic interaction (E value <% activity found); “SAFENING”=safener action on useful plant (E value >% activity found)

Test [2] relates to Matricaria inodora (MATIN). As to the kind of experiment: Post-emergence action against weeds, greenhouse pot test, Matricaria inodora. Conditions: for inhibition at 200 g/ha: 200 g of ai/ha; for inhibition at 600 g/ha: 600 g of ai/ha; for (7) % activity found: MATIN. The method, then: as §1, §2, §3, §4, §5
The test system of test [3] is Veronica persica (VERPE). As to the kind of experiment: Post-emergence action against weeds, greenhouse pot test, Veronica persica. Conditions: read-out: % activity found; for inhibition at 4 g/ha: 4 g of ai/ha; for inhibition at 12 g/ha: 12 g of ai/ha. The method, then:
as §1, §2, §3, §4, §5, §6, §7

Test [4] concerns Amaranthus retroflexus (AMARE). Nature of the test: Post-emergence action against weeds, greenhouse pot test, Amaranthus retroflexus. Conditions: read-out: % activity found. The method, then: as §1, §2, §3, §4, §5, §6, §7
The subject of test [5] is Viola tricolor (VIOTR). Nature of the test: Post-emergence action against weeds, greenhouse pot test, Viola tricolor. The note with it: for inhibition at 200 g/ha: 200 g of ai/ha. As for the experimental part:
as §1, §2, §3, §4, §5, §6, §7

Test [6] deals with Cyperus esculentus (CYPES). Nature of the test: Post-emergence action against weeds, greenhouse pot test, Cyperus esculentus. The method, then: as §1, §2, §3, §4, §5
Test [7] relates to Zea mays (ZEAMX). As to the kind of experiment: Post-emergence action against weeds, greenhouse pot test, Zea mays. The note with it: for inhibition at 200 g/ha: 200 g of ai/ha. As for the experimental part:
as §1, §2, §3, §4, §5, §6, §7

The subject of test [8] is Fallopia (ex Polygonum) convolvulus (POLCO). Nature of the test: Post-emergence action against weeds, greenhouse pot test, Fallopia convolvulus. As for the experimental part: as §1, §2, §3, §4, §5, §6, §7
The test system of test [9] is Triticum aestivum (TRZAS). Nature of the test: Post-emergence action against weeds, greenhouse pot test, Triticum aestivum. The note with it: 240 h, read-out: % activity found. As for the experimental part:
as §1, §2, §3, §4
(§8) Here: • A, B=activity of components A and B in percent at a dosage of a and b g of ai/ha (=gramm of active substance per hectare), respectively. • E=expected value in % at a dosage of a+b g of ai/ha. […]

Test [10] relates to Setaria viridis (SETVI). As to the kind of experiment: Post-emergence action against weeds, greenhouse pot test, Setaria viridis. Conditions: 504 h, read-out: % activity found. The method, then:
as §1, §2, §3, §4, §8

[11] abbreviates: Tripleurospermum inodorum, post-emergence, 240 h, 10 DAT, read-out: % activity found.
Where [12] appears, read: Tripleurospermum inodorum, post-emergence, 504 h, 21 DAT, read-out: % activity found.
[13] abbreviates: Zea mays, post-emergence, 240 h, read-out: % activity found.
Where [14] appears, read: Fallopia convolvulus, post-emergence, 504 h, read-out: % activity found.

Consider `CCOC1Oc2ccc(OS(C)(=O)=O)cc2C1(C)C` (racemic) [B-49, (±)-2-ethoxy-2,3-dihydro-3,3-dimethyl-5-benzofuranyl methanesulfonate], for which the inhibition at 200 g/ha in test [1] (240 h, 10 DAT) amounted to 0%; in test [1] (504 h, 21 DAT) it was 0%; in test [2] (setting [11]), 0%; in [2] (setting [12]) it was 20%; in test [3] (504 h, 21 DAT, 200 g of ai/ha), 20%; in [4] (504 h, 21 DAT, 200 g of ai/ha), 50%. Besides, the inhibition at 200 g/ha in test [5] (Viola tricolor, post-emergence, 240 h, 10 DAT, read-out: % activity found) amounted to 0%; in test [5] (Viola tricolor, post-emergence, 504 h, 21 DAT, read-out: % activity found) it was 0%; in test [7] (Zea mays, post-emergence, 240 h, 10 DAT, read-out: % activity found), 30%; in test [7] (Zea mays, post-emergence, 504 h, 21 DAT, read-out: % activity found), 0%; in test [8] (Fallopia convolvulus, post-emergence, 504 h, 21 DAT, 200 g of ai/ha, read-out: % activity found) it was 40%. Further, the inhibition at 600 g/ha in test [1] (240 h, 10 DAT) amounted to 10%; in test [1] (504 h, 21 DAT), 0%; in test [2] (setting [11]), 0%; in test [2] (setting [12]), 30%; in test [5] (Viola tricolor, post-emergence, 504 h, 21 DAT, 600 g of ai/ha, read-out: % activity found), 0%; in test [6] (Cyperus esculentus, post-emergence, 504 h, 21 DAT, 600 g of ai/ha, read-out: % activity found), 0%. The inhibition at 600 g/ha stood at 40% in test [7] (Zea mays, post-emergence, 240 h, 10 DAT, 600 g of ai/ha, read-out: % activity found) and 50% in test [8] (Fallopia convolvulus, post-emergence, 504 h, 21 DAT, 600 g of ai/ha, read-out: % activity found).

Regarding `CNC1=C(c2cccc(C(F)(F)F)c2)C(=O)C(c2ccccc2)O1` (racemic) [B-61, (±)-5-(methylamino)-2-phenyl-4-[3-(trifluoromethyl)phenyl]-3(2H)-furanone], the inhibition at 40 g/ha in test [1] (240 h) came out at 50%; in test [1] (504 h) it was 40%; in [9], 30%; in [7] (setting [13]), 40%. The “(7) % activity found” value in test [2] (21 DAT, B-61 alone, dose (6) 40) is on record as 50%; in test [2] (21 DAT, B-61 alone, dose (6) 120), 50%; in [2] (21 DAT, Table 65, B-61 alone, dose (6) 40), 50%; in test [5] (VIOTR, 21 DAT, B-61 alone, dose (6) 120), 70%; in test [6] (CYPES, 21 DAT, B-61 alone, dose (6) 40), 20%; in test [7] (ZEAMX, 21 DAT, B-61 alone, dose (6) 120), 50%. For the same molecule, the inhibition at 120 g/ha in test [7] (setting [13]) was 50%.

For the molecule `COc1nc(OC)nc(C(=O)c2cccc(F)c2N(C)S(=O)(=O)C(F)F)n1` [A-1], the “(7) % activity found” value in test [2] (21 DAT, A-1 alone, dose (5) 4) stood at 50%; in [2] (21 DAT, Table 65, A-1 alone, dose (5) 12), 60%. The inhibition at 4 g/ha in [2] (Tripleurospermum inodorum, post-emergence, 10/21 DAT, 4 g of ai/ha, read-out: % activity found) stood at 50%; in [3] (240 h, 10 DAT), 60%; in test [3] (504 h, 21 DAT), 30%; in test [4] (240 h, 10 DAT, 4 g of ai/ha) it was 70%; in [5] (Viola tricolor, post-emergence, 240 h, 10 DAT, 4 g of ai/ha, read-out: % activity found), 20%. The inhibition at 12 g/ha in [3] (240 h, 10 DAT) came to 60%; in test [3] (504 h, 21 DAT) it was 40%; in test [6] (Cyperus esculentus, post-emergence, 240 h, 10 DAT, 12 g of ai/ha, read-out: % activity found), 70%. The “% activity found” value in test [8] (21 DAT, 12 g of ai/ha) came out at 75%.

On to `CCS(=O)(=O)Oc1ccc2c(c1)C(C)(C)CO2` [B-9, 2,3-dihydro-3,3-dimethyl-5-benzofuranyl ethanesulfonate], for which the inhibition at 300 g/ha in test [1] (504 h) was 0%; in test [7] (setting [13]), 20%; in [7] (Zea mays, post-emergence, 504 h, read-out: % activity found), 0%; in test [8] (setting [14]), 30%. Further, the inhibition at 100 g/ha in test [2] (Tripleurospermum inodorum, post-emergence, 504 h, read-out: % activity found) turned out to be 50%; in test [3] (504 h), 0%; in [10] it was 40%; in test [7] (setting [13]) it was 10%; in test [8] (setting [14]), 0%.
